From patent US20140127144A1, “Flavour Modifying Compounds” (Givaudan S. A., priority 2011, published 2014)

Legend:
[1] = Expert panel tasting in aqueous solution of 0.5% NaCl, 0.03% MSG and 0.002% ribonucleotides; assay type: in vivo; conditions: 50 ppm in 0.5% NaCl, panel of 5
Text: Mixture A: An aqueous solution of 0.5% NaCl, 0.03% MSG and 0.002%
Ribonucleotides GMP:IMP, ratio 1:1)
Mixture B: The same as A plus50 ppm of N-hexanoyl-L-leucine
Mixture A: An aqueous solution of 0.5% NACl, 0.03% MSG and 0.002%
Ribonucleotides (1:1 GMP, IMP)
Mixture B: The same as A plus 50 ppm of N-pentanoyl-L-phenylalanine

[2] = Expert panel tasting in aqueous solution of 0.5% NaCl and 0.03% MSG; assay type: in vivo, people; conditions: panel of 5
Text: Mixture C: An aqueous solution of 0.5% NaCl and 0.03% MSG.
Mixture D: The same as C plus 10 ppm N-formyl-DL-phenylalanine.
Mixture C: An aquesous solution of 0.5% NaCL and 0.03% MSG
Mixture D: The same as C plus 50 ppm of N-acetyl-L-isoleucine
Mixture A: An aqueous solution of 0.5% NaCl and 0.03% of MSG.
Mixture B: The same as A plus 25 ppm N-formyl-L-lysine
Mixture C: An aqueous solution of 0.5% NaCl and 0.03% MSG (Mono sodium glutamate)
Mixture D: The same as C plus 75 ppm of N-acetlyl DL-valine

[3] = Expert panel tasting in aqueous solution of 0.5% NaCl; assay type: in vivo, people; conditions: panel of 5
Text: Mixture A: An aqueous solution of 0.5% NaCl Mixture B: The same as A plus 10 ppm N-formyl-DL-phenylalanine Mixture A: An aqueous solution of 0.5% NaCl Mixture B: The same as A plus 50 ppm of N-acetyl-L-isoleucine Mixture A: An aqueous solution of 0.5% NaCl Mixture B: The same as A plus 10 ppm N-acetyl-DL-valine

[4] = Expert panel tasting in chicken broth; assay type: in vivo, people; conditions: 100 ppm in chicken broth; panel of 5
Text: Mixture A: A chicken broth Mixture B: The same as A plus 100 ppm of N-acetyl-L-tyrosine

[5] = Panel of experienced tasters, instant mashed potato; assay type: in vivo, people; conditions: 150 ppm in mashed potato; panel of 8
Procedure: A standard instant mashed potato powder (Albert Heijn huismerk) was prepared and mixed with 150 ppm of N-acetyl glutamic acid. This product was tasted and compared with the original mashed potatoes by a panel of experienced tasters consisting of 8 people (5 men, 3 women aged 35-54).

[6] = Panel of experienced tasters, salad dressing; assay type: in vivo, people; conditions: 100 ppm in salad dressing; panel of 8
Procedure: 100 ppm of N-acetyl glutamic acid was dissolved in a common salad dressing (Remia met magere yoghurt). This product was tasted and compared with the original salad dressing by a panel of experienced tasters consisting of 8 people (5 men, 3 women aged 35-54).

[7] = Panel of experienced tasters, cola; assay type: in vivo, people; conditions: 100 ppm in cola; panel of 8
Procedure: To a standard cola (Pepsi or Coke cola) was added 100 ppm of N-acetyl glutamic acid. This product was tasted and compared with the original colas by a panel of experienced tasters consisting of 8 people (5 men, 3 women aged 35-54).

[8] = Panel of experienced tasters, cream cheese; assay type: in vivo, people; conditions: 150 ppm in cream cheese; panel of 8
Text: 150 ppm of N-acetyl glutamic acid was thoroughly mixed into Philadelphia brand cream cheese. This product was tasted and compared with the original cream cheese by a panel of experienced tasters consisting of 8 people (5 men, 3 women aged 35-54).

[9] = Expert panel tasting, application on soy sauce; assay type: in vivo, people; conditions: for taste description of mixture B compared to mixture A, effect assigned to the compound: 150-300 ppm N-acetyl-DL-glutamic acid plus 50-200 ppm N-formyl-glycine together in 5% soy sauce, panel of 5
Text: Mixture A: 5% of a standard soy sauce in water, Mixture B: Same as mixture A plus 150-300 ppm N-acetyl-DL-glutamic acid plus 50-200 ppm N-formyl-glycine. […] This effect could be assigned to N-acetyl glutamic acid.

[10] = Panel of experienced tasters, coffee beverage; assay type: in vivo, people; conditions: 150 ppm in coffee beverage; panel of 8
Procedure: To a coffee beverage (Starbuck's frappucino) was added 150 ppm of N-acetyl glutamic acid. This product was tasted and compared with the original coffee beverage by a panel of experienced tasters consisting of 8 people (5 men, 3 women aged 35-54).

[11] = Expert panel tasting, application on Bechamel sauce with cheese; assay type: in vivo, people; conditions: for taste description of mixture B compared to mixture A, effect assigned to the compound: 150-300 ppm N-acetyl-DL-glutamic acid plus 50-200 ppm N-formyl-glycine together in Bechamel sauce with cheese, panel of 5
Procedure: Mixture A: A Bechamel sauce with cheese was prepared by heating up 25 g of wheat flour in 35 g of butter in a saucepan. Let the flour cook shortly. Add 500 g milk, 2.5 g table salt, 0.15 g MSG, 0.075 g nutmeg powder, 0.125 g black pepper and 40 g of cheese powder. Boil the mixture for one minute. Mixture B: The same as mixture A plus 150-300 ppm N-acetyl-DL-glutamic acid plus 50-200 ppm N-formyl-glycine.

[12] = Panel of experienced tasters, potato chips with cheese sour cream flavour; assay type: in vivo, people; conditions: amount not given, panel of 8
Procedure: Potato chips were prepared in house. A cheese sour cream flavour was prepared by mixing salt (1.5 weight % on the chips), MSG (0.05), whey powder (2.5), cheese powder (1.5), cream powder (0.2), buttermilk powder (0.4) and onion powder (0.2) The powder was applied on plain potato chips. This product was tasted and compared with the chips without N—Ac—Glu by a panel of experienced tasters consisting of 8 people (5 men, 3 women aged 35-54).

[13] = Panel of experienced tasters, vanilla yoghurt; assay type: in vivo, people; conditions: 100 ppm in vanilla yoghurt; panel of 8
Procedure: To a standard vanilla yoghurt (Campina) was added 100 ppm of N-acetyl glutamic acid. This product was tasted and compared with the original vanilla yoghurt by a panel of experienced tasters consisting of 8 people (5 men, 3 women aged 35-54).

[14] = Panel of experienced tasters, soy milk; assay type: in vivo, people; conditions: 100 ppm in soy milk; panel of 8
Procedure: To a standard soy milk (Alpro) was added 100 ppm of N-acetyl glutamic acid. This product was tasted and compared with the original soy milk by a panel of experienced tasters consisting of 8 people (5 men, 3 women aged 35-54).

[15] = Panel of experienced tasters, hamburgers; assay type: in vivo, people; conditions: 150 ppm in hamburgers, baked; panel of 8
Procedure: Hamburgers were prepared from 80% lean beef and 20% fat beef meat containing 0.5% salt, 0.15% black pepper and 0.15% onion powder and 150 ppm of N-acetyl glutamic acid. The hamburgers were baked without additional fat and compared with the same batch of meat to which no N-acetyl glutamic acid was added. This product was tasted and compared with the original hamburgers by a panel of experienced tasters consisting of 8 people (5 men, 3 women aged 35-54).

[16] = Panel of experienced tasters, tomato soup; assay type: in vivo, people; conditions: 100 ppm in tomato soup; panel of 8
Procedure: To a standard tomato soup (Albert Heijn huismerk) was added 100 ppm of N-acetyl glutamic acid. This product was tasted and compared with the original tomato soup by a panel of experienced tasters consisting of 8 people (5 men, 3 women aged 35-54).

[17] = Panel of experienced tasters, cooking oil; assay type: in vivo, people; conditions: 200 ppm in cooking oil; panel of 8
Procedure: 200 ppm of N-acetyl glutamic acid was dissolved in a common cooking oil (Becel kitchen). This product was tasted and compared with the original cooking oil by a panel of experienced tasters consisting of 8 people (5 men, 3 women aged 35-54).

[18] = Expert panel tasting in salt reduced soy sauce; assay type: in vivo; conditions: 0.04 ppm in salt reduced soy sauce
Text: Mixture A: salt reduced Kikkoman soy sauce containing 9% salt Mixture B: same as Mixture A plus 0.04 ppm N-acetyl-methionine

[19] = Expert tasters, beef bouillon tasted warm; assay type: in vivo; conditions: 40 ppb in beef bouillon
Text: Mixture C: commercially available beef bouillon Mixture D: same as Mixture C plus 40 ppb N-acetyl-methionine The soups were tasted warm by a group of expert tasters.

CCCCCC(=O)N[C@@H](CC(C)C)C(=O)O [N-hexanoyl-L-leucine]
taste description of mixture B compared to mixture A [1]: more salty and umami

CCCCC(=O)N[C@@H](Cc1ccccc1)C(=O)O [N-pentanoyl-L-phenylalanine]
taste description of mixture B compared to mixture A [1]: more salty and umami

O=CNC(Cc1ccccc1)C(=O)O (racemic) [N-formyl-DL-phenylalanine]
taste description of mixture D compared to mixture C ([2]; 10 ppm in 0.5% NaCl and 0.03% MSG): more umami
taste description of mixture B compared to mixture A ([3]; 10 ppm in 0.5% NaCl): more salty

CC(=O)N[C@@H](Cc1ccc(O)cc1)C(=O)O [N-acetyl-L-tyrosine]
taste description of mixture B compared to mixture A [4]: more salty, lingering umami and shows delayed numbing

CC(=O)N[C@@H](CCC(=O)O)C(=O)O [N-acetyl glutamic acid]
taste description compared with the original product [5]: more salty, more creamy and more full
taste description compared with the original product [6]: more balanced, less sour, fuller, salivating and more lingering
taste description compared with the original product [7]: slightly less acidic, more syrupy and more smooth
taste description compared with the original product [8]: saltier, creamier, more umami, more body, lingering and mouth-coating
taste description of mixture B compared to mixture A, effect assigned to the compound [9]: more umami and more lingering savoury
taste description compared with the original product [10]: slightly more bitter, had reduced metallic retort notes and had increased carmellic notes
taste description of mixture B compared to mixture A, effect assigned to the compound [11]: more lingering, and giving fullness, depth and aftertaste of dairy cheese products
taste description compared with the chips without N-Ac-Glu [12]: more salty, more creamy, gave more mouthwatering and had increased cheese intensity
taste description compared with the original product [13]: less sour, more intense vanilla, more creamy, lingering and had more body
taste description compared with the original product [14]: slightly more sweet and masked some of the soy off-notes
taste description compared with the original product [15]: more meaty, more succulent, more juicy, more fatty and more expanding in the mouth
taste description compared with the original product [16]: less sour, had more body, was more salivating and had a stronger cooked taste
taste description compared with the original product [17]: more fatty, more creamy, more mouthcoating and gave a better buttery aftertaste

CC(=O)NC(CCC(=O)O)C(=O)O (racemic) [N-acetyl-DL-glutamic acid]
taste description compared to mixture A ([11]; only 150-300 ppm N-acetyl-DL-glutamic acid on top of mixture A): more fullness, depth and aftertaste of cheese

CC(=O)NC(C(=O)O)C(C)C (racemic) [N-acetyl-DL-valine]
taste description of mixture D compared to mixture C ([2]; 75 ppm in 0.5% NaCl and 0.03% MSG): more lingering umami and salivating
taste description of mixture B compared to mixture A ([3]; 10 ppm in 0.5% NaCl): more initially salty

CC(=O)N[C@@H](CCC(=O)O)C(=O)O [N-acetyl-L-glutamic acid]
taste description compared to mixture A ([9]; only 50 -300 ppm N-acetyl-L-glutamic acid on top of mixture A): more umami and more lingering savoury

O=CNCC(=O)O [N-formyl glycine]
taste description of mixture B compared to mixture A, effect assigned to the compound [9]: stronger initial salt spike, was more long-lasting, complex and more succulent
taste description compared to pure mixture A ([9]; only 50-200 ppm N-formyl-glycine on top of mixture A): more salty, more complex, long lasting and succulent
taste description of mixture B compared to mixture A, effect assigned to the compound [11]: stronger initial bite, is more salty and more complex
taste description compared to pure mixture A ([11]; only 50-200 ppm N-formyl glycine on top of mixture A): more bite, more complex note and saltiness

NCCCCC(NC=O)C(=O)O [N-formyl-L-lysine, alpha-N-formyl-L-lysine]
taste description of mixture B compared to mixture A ([2]; 25 ppm in 0.5% NaCl and 0.03% MSG): more umami

CSCCC(NC(C)=O)C(=O)O (stereo not shown) [N-acetyl-methionine, N-acetyl-methionine (2-acetamido-4-(methylthio)butanoic acid)]
taste description of mixture B compared to mixture A [18]: more salty and has more upfront salty taste
taste description of mixture D compared to mixture C [19]: more salty, longer lasting and lifts the garlic component

CC[C@H](C)[C@H](NC(C)=O)C(=O)O [N-acetyl-L-isoleucine]
taste description of mixture D compared to mixture C ([2]; 50 ppm in 0.5% NaCl and 0.03% MSG): more umami
taste description of mixture B compared to mixture A ([3]; 50 ppm in 0.5% NaCl): more salty
